Reference: PubChem BioAssay AID1745844 (Carcinogenic Potency Database (CPDB), 2022)
“And” between values parts separate entries of the source, which are not always exact repeats. Equal values may be shown once. The source made the active and inactive calls. The rule behind the calls is not given here.

System: rodent lifetime carcinogenesis bioassay, tumor incidence TD50
Test: carcinogenic potency in animals, long-term in vivo studies, CPDB compilation (AID 1745844)
[1] = mouse, strain B6C3F1, females, in feed, site: liver, lesion: hepatocellular adenoma, dosed 104 weeks, study length 104 weeks
[2] = mouse, strain B6C3F1, males, in feed, site: liver, lesion: hepatocellular adenoma, dosed 104 weeks, study length 104 weeks
[3] = mouse, strain B6C3F1, males, in feed, site: liver, lesion: hepatocellular carcinoma, dosed 104 weeks, study length 104 weeks
[4] = mouse, strain B6AKF1, females, oral dosing, site: lung, lesion: adenoma, dosed 76 weeks, study length 76 weeks

Cc1ncc[nH]1
TD50 (mouse, strain B6C3F1, females, in feed, site: any site (literature study), lesion: several types, types named in the paper, dosed 104 weeks, study length 104 weeks): 729 mg/kg/day | TD50 (mouse, strain B6C3F1, females, in feed, site: liver, lesion: hepatocellular adenoma + hepatoblastoma + hepatocellular carcinoma, dosed 104 weeks, study length 104 weeks): 1620 mg/kg/day | TD50 [1]: 1380 mg/kg/day | TD50 (mouse, strain B6C3F1, males, in feed, site: any site (literature study), lesion: several types, types named in the paper, dosed 104 weeks, study length 104 weeks): 866 mg/kg/day | TD50 (mouse, strain B6C3F1, males, in feed, site: liver + thyroid gland, lesion: hepatocellular adenoma + hepatocellular carcinoma + follicular-cell adenoma, dosed 104 weeks, study length 104 weeks): 378 mg/kg/day | TD50 (mouse, strain B6C3F1, males, in feed, site: liver, lesion: hepatocellular adenoma + hepatoblastoma + hepatocellular carcinoma, dosed 104 weeks, study length 104 weeks): 546 mg/kg/day | TD50 (mouse, strain B6C3F1, males, in feed, site: liver, lesion: hepatocellular adenoma + hepatocellular carcinoma, dosed 104 weeks, study length 104 weeks): 546 mg/kg/day | TD50 [2]: 648 mg/kg/day | TD50 [3]: 378 mg/kg/day | TD50 (mouse, strain B6C3F1, males, in feed, site: thyroid gland, lesion: follicular-cell adenoma, dosed 104 weeks, study length 104 weeks): 1810 mg/kg/day | TD50 (rat, strain Fischer 344, females, in feed, site: any site (literature study), lesion: several types, types named in the paper, dosed 105 weeks, study length 105 weeks): 131 mg/kg/day | TD50 (rat, strain Fischer 344, females, in feed, site: liver, lesion: hepatocellular adenoma + hepatoblastoma + hepatocellular carcinoma, dosed 105 weeks, study length 105 weeks): 2000 mg/kg/day | TD50 (rat, strain Fischer 344, females, in feed, site: liver, lesion: hepatocellular adenoma, dosed 105 weeks, study length 105 weeks): 2000 mg/kg/day | TD50 (rat, strain Fischer 344, females, in feed, site: thyroid gland, lesion: follicular-cell adenoma + follicular-cell carcinoma, dosed 105 weeks, study length 105 weeks): 882 mg/kg/day | TD50 (rat, strain Fischer 344, females, in feed, site: thyroid gland, lesion: follicular-cell adenoma, dosed 105 weeks, study length 105 weeks): 2100 mg/kg/day | TD50 (rat, strain Fischer 344, females, in feed, site: thyroid gland, lesion: follicular-cell carcinoma, dosed 105 weeks, study length 105 weeks): 1380 mg/kg/day | TD50 (rat, strain Fischer 344, males, in feed, site: any site (literature study), lesion: several types, types named in the paper, dosed 104 weeks, study length 104 weeks): 303 mg/kg/day | TD50 (rat, strain Fischer 344, males, in feed, site: liver, lesion: hepatocellular adenoma + hepatoblastoma + hepatocellular carcinoma, dosed 104 weeks, study length 104 weeks): 663 mg/kg/day | TD50 (rat, strain Fischer 344, males, in feed, site: liver, lesion: hepatocellular adenoma + hepatocellular carcinoma, dosed 104 weeks, study length 104 weeks): 663 mg/kg/day | TD50 (rat, strain Fischer 344, males, in feed, site: pancreatic islets, lesion: islet-cell adenoma, dosed 104 weeks, study length 104 weeks): 1010 mg/kg/day | TD50 (rat, strain Fischer 344, males, in feed, site: skin, lesion: basal-cell carcinoma + keratoacanthoma + trichoepithelioma, dosed 104 weeks, study length 104 weeks): 624 mg/kg/day | TD50 (rat, strain Fischer 344, males, in feed, site: thyroid gland, lesion: follicular-cell adenoma + follicular-cell carcinoma, dosed 104 weeks, study length 104 weeks): 854 mg/kg/day

Oc1c(Cl)cc(Cl)cc1Sc1cc(Cl)cc(Cl)c1O
carcinogen call (mouse, strain B6AKF1, females, oral dosing, site: liver, lesion: hepatoma, dosed 76 weeks, study length 76 weeks): negative (inactive) | TD50 [4]: 100 mg/kg/day | carcinogen call [4]: negative (inactive) | carcinogen call (mouse, strain B6AKF1, males, oral dosing, site: any site (literature study), lesion: several types, types named in the paper, dosed 76 weeks, study length 76 weeks): negative (inactive) | carcinogen call (mouse, strain B6AKF1, males, oral dosing, site: liver, lesion: hepatoma, dosed 76 weeks, study length 76 weeks): negative (inactive) | carcinogen call (mouse, strain B6AKF1, males, oral dosing, site: lung, lesion: adenoma, dosed 76 weeks, study length 76 weeks): negative (inactive) | carcinogen call (mouse, strain B6C3F1, females, oral dosing, site: any site (literature study), lesion: one or several types, types not named, dosed 76 weeks, study length 76 weeks): negative (inactive) | TD50 (mouse, strain B6C3F1, females, oral dosing, site: any site (literature study), lesion: several types, types named in the paper, dosed 76 weeks, study length 76 weeks): 43 mg/kg/day | carcinogen call (mouse, strain B6C3F1, females, oral dosing, site: liver, lesion: hepatoma, dosed 76 weeks, study length 76 weeks): negative (inactive) | carcinogen call (mouse, strain B6C3F1, females, oral dosing, site: lung, lesion: several types, types named in the paper, dosed 76 weeks, study length 76 weeks): negative (inactive) | TD50 (mouse, strain B6C3F1, males, oral dosing, site: liver, lesion: angioma, dosed 76 weeks, study length 76 weeks): 88.2 mg/kg/day | TD50 (mouse, strain B6C3F1, males, oral dosing, site: liver, lesion: several types, types named in the paper, dosed 76 weeks, study length 76 weeks): 2.28 mg/kg/day (inactive) | TD50 (mouse, strain B6C3F1, males, oral dosing, site: lung, lesion: adenoma, dosed 76 weeks, study length 76 weeks): 88.2 mg/kg/day | carcinogen call (mouse, strain B6C3F1, males, oral dosing, site: lung, lesion: several types, types named in the paper, dosed 76 weeks, study length 76 weeks): negative (inactive)

C=CCN(CC(C)O)N=O (stereo unspecified)
TD50 (rat, strain Fischer 344, females, in drinking water, site: esophagus, lesion: several types, types named in the paper, dosed 50 weeks, study length 65 weeks): 4.67 mg/kg/day | TD50 (rat, strain Fischer 344, females, in drinking water, site: liver, lesion: hepatocellular carcinoma, dosed 50 weeks, study length 65 weeks): 1.38 mg/kg/day | TD50 (rat, strain Fischer 344, females, in drinking water, site: nasal cavity, lesion: several types, types named in the paper, dosed 50 weeks, study length 65 weeks): 0.877 mg/kg/day

CCCCCCCC(=O)OCC(COC(=O)CCCCCCC)OC(=O)CCCCCCC
TD50 (rat, strain Fischer 344, males, by gavage, site: any site (literature study), lesion: several types, types named in the paper, dosed 104 weeks, study length 104 weeks): 69900 mg/kg/day | TD50 (rat, strain Fischer 344, males, by gavage, site: forestomach, lesion: squamous-cell papilloma, dosed 104 weeks, study length 104 weeks): 15700 mg/kg/day | TD50 (rat, strain Fischer 344, males, by gavage, site: liver, lesion: hepatocellular adenoma + hepatoblastoma + hepatocellular carcinoma, dosed 104 weeks, study length 104 weeks): 37100 mg/kg/day | TD50 (rat, strain Fischer 344, males, by gavage, site: liver, lesion: hepatocellular adenoma, dosed 104 weeks, study length 104 weeks): 37100 mg/kg/day | TD50 (rat, strain Fischer 344, males, by gavage, site: pancreas, lesion: acinar-cell adenoma, dosed 104 weeks, study length 104 weeks): 5490 mg/kg/day (inactive)

CC(C)(CCCOc1ccc(OCCCC(C)(C)C(=O)O)c(-c2ccccc2)c1)C(=O)O
TD50 [1]: 90.6 mg/kg/day | TD50 (mouse, strain B6C3F1, females, in feed, site: liver, lesion: hepatocellular carcinoma, dosed 104 weeks, study length 104 weeks): 402 mg/kg/day | TD50 (mouse, strain B6C3F1, females, in feed, site: liver, lesion: several types, types named in the paper, dosed 104 weeks, study length 104 weeks): 72.3 mg/kg/day | TD50 [2]: 107 mg/kg/day | TD50 [3]: 167 mg/kg/day | TD50 (mouse, strain B6C3F1, males, in feed, site: liver, lesion: several types, types named in the paper, dosed 104 weeks, study length 104 weeks): 45 mg/kg/day

CC(=O)NNC(C)=O
carcinogen call (mouse, strain Swiss, females, by gavage, site: lung, lesion: several types, types named in the paper, dosed 34 weeks, study length 95 weeks): negative (inactive) | carcinogen call (mouse, strain Swiss, females, by gavage, site: lung, lesion: several types, types named in the paper, dosed 95 weeks, study length 95 weeks): negative (inactive) | TD50 (mouse, strain Swiss, males, by gavage, site: lung, lesion: several types, types named in the paper, dosed 34 weeks, study length 95 weeks): 144 mg/kg/day (inactive) | TD50 (mouse, strain Swiss, males, by gavage, site: lung, lesion: several types, types named in the paper, dosed 95 weeks, study length 95 weeks): 411 mg/kg/day (inactive)

CC[C@H]1OC(=O)C[C@@H](O)[C@H](C)[C@@H](O[C@@H]2O[C@H](C)[C@@H](O[C@H]3C[C@@](C)(O)[C@@H](O)[C@H](C)O3)[C@H](N(C)C)[C@H]2O)[C@@H](CC=O)C[C@@H](C)C(=O)/C=C/C(C)=C/C1CO[C@@H]1O[C@H](C)[C@@H](O)[C@@H](OC)[C@H]1OC (stereo partly specified)
carcinogen call (mouse, strain C57BL/6, females, in feed, site: liver, lesion: one or several types, types not named, dosed 52 weeks, study length 52 weeks): negative (inactive) | carcinogen call (mouse, strain C57BL/6, females, in feed, site: lung, lesion: one or several types, types not named, dosed 52 weeks, study length 52 weeks): negative (inactive) | carcinogen call (mouse, strain C57BL/6, males, in feed, site: liver, lesion: one or several types, types not named, dosed 52 weeks, study length 52 weeks): negative (inactive) | carcinogen call (mouse, strain C57BL/6, males, in feed, site: lung, lesion: one or several types, types not named, dosed 52 weeks, study length 52 weeks): negative (inactive)

OCC(O)CO
TD50 (rat, strain Long-Evans, both sexes, in feed, site: any site (literature study), lesion: several types, types named in the paper, dosed 105 weeks, study length 105 weeks): 38300 mg/kg/day (inactive) and 12300 mg/kg/day (inactive)

C=CCOc1ccccc1OCC(O)CNC(C)C (stereo unspecified)
TD50 (mouse, strain CF-1, females, in feed, site: liver, lesion: carcinoma, dosed 78 weeks, study length 91 weeks): 2400 mg/kg/day (inactive) | carcinogen call (mouse, strain CF-1, females, in feed, site: liver, lesion: one or several types, types not named, dosed 78 weeks, study length 78 weeks): negative (inactive) | carcinogen call (mouse, strain CF-1, females, in feed, site: lung, lesion: adenoma, dosed 78 weeks, study length 91 weeks): negative (inactive) | TD50 (mouse, strain CF-1, females, in feed, site: lung, lesion: carcinoma, dosed 78 weeks, study length 78 weeks): 425 mg/kg/day (inactive) | carcinogen call (mouse, strain CF-1, females, in feed, site: lung, lesion: neurofibrosarcoma, dosed 78 weeks, study length 91 weeks): negative (inactive) | TD50 (mouse, strain CF-1, males, in feed, site: liver, lesion: carcinoma, dosed 78 weeks, study length 78 weeks): 2620 mg/kg/day (inactive) | TD50 (mouse, strain CF-1, males, in feed, site: liver, lesion: parenchymal adenoma, dosed 78 weeks, study length 91 weeks): 2120 mg/kg/day (inactive) | carcinogen call (mouse, strain CF-1, males, in feed, site: lung, lesion: adenoma, dosed 78 weeks, study length 78 weeks): negative (inactive) | carcinogen call (mouse, strain CF-1, males, in feed, site: lung, lesion: adenoma, dosed 78 weeks, study length 91 weeks): negative (inactive) | carcinogen call (mouse, strain CF-1, males, in feed, site: lung, lesion: carcinoma, dosed 78 weeks, study length 78 weeks): negative (inactive) | carcinogen call (rat, strain Charles River CD (Sprague-Dawley), females, in feed, site: liver, lesion: one or several types, types not named, dosed 78 weeks, study length 78 weeks): negative (inactive) | TD50 (rat, strain Charles River CD (Sprague-Dawley), males, in feed, site: liver, lesion: hepatocellular adenoma, dosed 78 weeks, study length 78 weeks): 1680 mg/kg/day (inactive)

C=CBr
TD50 (rat, strain Sprague-Dawley, females, inhaled, site: Zymbal's gland, lesion: squamous-cell carcinoma, dosed 81 weeks, study length 103 weeks): 2240 mg/kg/day | TD50 (rat, strain Sprague-Dawley, females, inhaled, site: liver, lesion: hepatocellular carcinoma, dosed 81 weeks, study length 103 weeks): 749 mg/kg/day | TD50 (rat, strain Sprague-Dawley, females, inhaled, site: liver, lesion: neoplastic nodule, dosed 81 weeks, study length 103 weeks): 18.9 mg/kg/day | TD50 (rat, strain Sprague-Dawley, females, inhaled, site: liver, lesion: several types, types named in the paper, dosed 81 weeks, study length 103 weeks): 433 mg/kg/day | TD50 (rat, strain Sprague-Dawley, females, inhaled, site: several sites, sites named in the paper, lesion: angiosarcoma, dosed 81 weeks, study length 103 weeks): 19.2 mg/kg/day | TD50 (rat, strain Sprague-Dawley, males, inhaled, site: Zymbal's gland, lesion: papilloma, dosed 76 weeks, study length 103 weeks): 2760 mg/kg/day | TD50 (rat, strain Sprague-Dawley, males, inhaled, site: Zymbal's gland, lesion: squamous-cell carcinoma, dosed 76 weeks, study length 103 weeks): 409 mg/kg/day | TD50 (rat, strain Sprague-Dawley, males, inhaled, site: liver, lesion: hepatocellular carcinoma, dosed 76 weeks, study length 103 weeks): 387 mg/kg/day | TD50 (rat, strain Sprague-Dawley, males, inhaled, site: liver, lesion: several types, types named in the paper, dosed 76 weeks, study length 103 weeks): 303 mg/kg/day | TD50 (rat, strain Sprague-Dawley, males, inhaled, site: several sites, sites named in the paper, lesion: angiosarcoma, dosed 76 weeks, study length 103 weeks): 17.9 mg/kg/day
